Where a chain is given by its changes, count along the chain named.
Assays:
FLT3 D835V = biological target: T1, FLT3 D835V (Homo sapiens, UniProt P36888, D835V); experiment: DiscoverX KINOMEscan competition binding assay, FLT3 D835V
T1 construct: purchased DiscoverX (KINOMEscan); host or cells: E. coli (T7 phage) or HEK-293
T1 sequence (P36888 27-993 D835V): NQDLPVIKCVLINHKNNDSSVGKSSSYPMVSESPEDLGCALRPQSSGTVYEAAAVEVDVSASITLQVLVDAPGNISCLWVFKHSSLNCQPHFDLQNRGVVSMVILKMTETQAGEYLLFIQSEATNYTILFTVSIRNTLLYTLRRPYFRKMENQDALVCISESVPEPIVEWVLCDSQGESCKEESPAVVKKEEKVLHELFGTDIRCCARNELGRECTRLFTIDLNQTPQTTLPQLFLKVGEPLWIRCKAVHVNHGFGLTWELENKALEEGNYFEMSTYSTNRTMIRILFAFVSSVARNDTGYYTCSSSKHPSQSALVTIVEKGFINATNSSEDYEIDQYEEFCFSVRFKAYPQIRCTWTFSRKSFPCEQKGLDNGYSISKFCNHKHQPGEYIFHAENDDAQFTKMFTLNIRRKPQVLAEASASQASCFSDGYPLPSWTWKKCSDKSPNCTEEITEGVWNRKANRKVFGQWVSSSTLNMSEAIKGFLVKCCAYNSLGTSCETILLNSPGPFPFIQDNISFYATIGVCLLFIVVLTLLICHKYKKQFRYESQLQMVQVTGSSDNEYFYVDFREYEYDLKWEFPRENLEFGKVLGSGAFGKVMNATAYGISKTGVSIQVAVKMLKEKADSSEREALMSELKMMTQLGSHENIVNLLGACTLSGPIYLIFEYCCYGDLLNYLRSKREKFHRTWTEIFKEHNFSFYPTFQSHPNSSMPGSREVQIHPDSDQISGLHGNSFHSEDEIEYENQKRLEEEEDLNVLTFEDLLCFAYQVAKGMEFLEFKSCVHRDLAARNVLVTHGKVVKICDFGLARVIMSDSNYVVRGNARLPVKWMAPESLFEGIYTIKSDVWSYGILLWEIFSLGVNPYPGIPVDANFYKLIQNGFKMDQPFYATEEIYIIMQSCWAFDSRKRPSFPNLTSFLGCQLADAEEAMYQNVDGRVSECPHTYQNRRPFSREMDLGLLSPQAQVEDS
Excerpt: (§1) Kinase binding data were obtained for various exemplary compounds prepared according to Examples 1-25 using the DiscoverX KINOMEscan® active site-directed competition binding site-directed assay protocol described below. […] As a result, the data report thermodynamic interaction affinities (Kd values), rather than IC50 values that are dependent on ATP concentrations. The assay uses a DNA-tagged version of the protein kinase, and an immobilized ligand bound to a solid support. Compounds that directly or indirectly prevent kinase binding to the immobilized ligand reduce the amount of kinase captured on the solid support, which is detected using an ultra-sensitive qPCR method. Affinity constants reported from the assay have been reported to be independent of the immobilized ligand used that is coupled to the solid support (See supplemental information in Fabian, M. A. et. al., (2005) Nat. Biotechnol. 23, 329-336; Wodicka, L. M. et. al., (2010) Chem. Biol. 17, 1241-1249.)
(§2) Kinase-tagged T7 phage strains were prepared in an E. coli host derived from the BL21 strain. E. coli were grown to log-phase and infected with T7 phage and incubated with shaking at 32° C. until lysis. The lysates were centrifuged and filtered to remove cell debris. The remaining kinases were produced in HEK-293 cells and subsequently tagged with DNA for qPCR detection. […] The liganded beads were blocked with excess biotin and washed with blocking buffer (SeaBlock (Pierce), 1% BSA, 0.05% Tween 20, 1 mM DTT) to remove unbound ligand and to reduce non-specific binding. […] Test compounds were prepared as 111× stocks in 100% DMSO. Kds were determined using an 11-point 3-fold compound dilution series with three DMSO control points. […] The compounds were then diluted directly into the assays such that the final concentration of DMSO was 0.9%. All reactions were performed in polypropylene 384-well plates. Each was a final volume of 0.02 mL. […] The kinase concentration in the eluates was measured by qPCR.
(§3) Binding constants (Kds) were calculated with a standard dose-response curve using the Hill equation. […]

FLT3 K663Q = biological target: T2, FLT3 K663Q (Homo sapiens, UniProt P36888, K663Q); experiment: DiscoverX KINOMEscan competition binding assay, FLT3 K663Q
T2 construct: purchased DiscoverX (KINOMEscan); host or cells: E. coli (T7 phage) or HEK-293
T2 sequence (P36888 27-993 K663Q): T1 sequence (P36888 27-993 D835V) with K637Q, V809D
Excerpt: as §1, §2, §3

Row | Kd (FLT3 D835V) [nM] | Kd (FLT3 K663Q) [nM] | SMILES
1 | 0.12 | 0.6 | COc1cc2ncc(-c3cccc(N[C@H]4CNC[C@@H]4F)n3)n2nc1C1CC1 [Compound 96, 6-(6-cyclopropyl-7-methoxyimidazo[1,2-b]pyridazin-3-yl)-N-((3S,4S)-4-fluoropyrrolidin-3-yl)pyridin-2-amine]
2 | 0.067 | 1.4 | COc1cc2ncc(-c3cccc(N[C@@H]4CCNC4)n3)n2nc1C1CC1 [Compound 97, (R)-6-(6-cyclopropyl-7-methoxyimidazo[1,2-b]pyridazin-3-yl)-N-(pyrrolidin-3-yl)pyridin-2-amine]
3 | 0.11 | 0.37 | COc1cc2ncc(-c3cccc(N[C@H]4CNCC[C@@H]4F)n3)n2nc1C1CC1 [Compound 102, 6-(6-cyclopropyl-7-methoxyimidazo[1,2-b]pyridazin-3-yl)-N-((3S,4S)-4-fluoropiperidin-3-yl)pyridin-2-amine]
